From paper PMC11242853, “The Antimicrobial Activity of Human Defensins at Physiological Non-Permeabilizing Concentrations Is Caused by the Inhibition of the Plasma Membrane H^+-ATPases” (International Journal of Molecular Sciences, 2024)

Columns and labels:
[1] = system: Pseudomonas aeruginosa PAO1; experiment: Antimicrobial spread-plate (CFU) killing assay, P. aeruginosa; format: cell-based
Experimental: (§1) To determine whether the above microbicidal concentrations exert a permeabilizing effect on fungal and bacterial membranes, the influx of the fluorescent nucleic acid-binding dye propidium iodide (PI) in cells incubated with the peptides was assessed. In cells, dye uptake reflects membrane permeabilization, as PI itself cannot permeate through an intact phospholipid bilayer. […] To select an antimicrobial but non-permeabilizing concentration of each peptide for further assays, we defined as a non-permeabilizing inhibitory concentration (NPIC) the antimicrobial inhibitory concentration (≤10% viable cells) that permeabilized ≤ 10% of cells incubated (90 min at 37 °C) in buffer solution.
(§2) Microbial susceptibility to the peptides was determined in a spread-plate assay as described previously. Briefly, cell suspensions (10^6 cells/mL) in Tris buffer (10 mM Tris-HCl, pH 7.4) were incubated for 90 min at 37 °C with 2-fold serial peptide dilutions. Peptide concentrations ranged from 0 to 2 μM. After incubation, the number of viable cells was determined by plating aliquots (100 μL) in duplicate on plates (SDA for C. albicans, TSA for P. aeruginosa, and M17G agarified medium for L. lactis) that had been dried for 30 min at room temperature in a laminar flow hood. Plates were incubated for 24–48 h at 30 °C (C. albicans and L. lactis) or 24 h at 37 °C (P. aeruginosa). Dilutions yielding 50–200 colonies were counted. Cell viability values, expressed as colony-forming units (CFUs), were calculated relative to the incubation without added peptides and represent the means ± standard deviation (SD) from duplicates of three independent experiments. For inhibition assays, unless otherwise noted, cell suspensions were preincubated (15 min at 37 °C) with the appropriate inhibitor prior to the addition of peptides, but the inhibitor was present throughout the incubation period with the peptide (90 min at 37 °C). Other specific experimental conditions are described as appropriate. In some experiments, the concentrations of human lactoferrin against C. albicans (5 μM), P. aeruginosa (1 μM), and L. lactis (0.065 μM) were used in the control assays. In various viability assays, BM2 peptide (0.25 μM), CCCP (50 μM), colistin (4 μg/mL), nystatin (50 μM), oligomycin A (16 μg/mL), piericidin A (32 μM), and TEA (10 mM) were used.

[2] = system: Candida albicans ATCC 10231; experiment: Antimicrobial spread-plate (CFU) killing assay, C. albicans; format: cell-based; details: for effect of high extracellular K+ on candidacidal activity: 50 mM KCl, defensins at NPIC, hLf 5 μM, BM2 0.25 μM, nystatin 50 μM; for effect of Tok1p inhibition (TEA) on candidacidal activity: preincubation 15 min at 37 °C with 10 mM TEA+
Experimental: as §1, §2

C. albicans cells [3] = experiment: Extracellular potassium measurement (K+-efflux, ICP-MS); format: cell-based, Candida albicans
Experimental: Potassium measurements were performed via inductively coupled plasma mass spectrometry using an Agilent 7700x ICP-MS (Agilent Technologies, Santa Clara, CA, USA). C. albicans cells were cultured in SDB for 16–20 h at 30 °C. The cells were then subcultured in the same media to the mid-logarithmic growth phase and rapidly washed in sterile, deionized, double-distilled water. The cells (10^7 cells/mL) were immediately incubated with the peptides (NPIC) for 90 min at 37 °C. The tubes were centrifuged at 1100× g for 10 min and the supernatants were collected and stored at 4 °C until analysis. The percentage of cytosolic potassium released from cell suspensions treated with nystatin (50 μM) was determined in positive control assays. Total cellular K^+-content (100% value) was measured in the supernatant of cell suspensions previously treated with 0.5% (v/v) HClO4 alone, heated for 1 h at 95 °C, and centrifuged to remove cell debris. Results are expressed as the percentage (means ± SD) of K^+-release relative to the total cellular K^+-content from duplicates of at least three independent assays.

C. albicans cells [4] = experiment: Oxygen consumption measurement (polarographic), C. albicans; format: cell-based, Candida albicans; details: after 30 min; defensins 2 x NPIC, human lactoferrin 20 μM, piericidin A 32 µM; preincubated 15 min at 37 °C; untreated cells 94% ± 2%; means ± SD, three experiments
Experimental: (§3) Oxygen consumption by C. albicans and P. aeruginosa cells was determined by polarographically using a biological oxygen monitor (dual digital-model 20; Rank Brothers Ltd., Cambridge, UK) at 25 °C. The apparatus consisted of a twin water-jacketed closed sample chamber, which enabled a control experiment to be conducted concurrently. The cells were grown to mid-log phase in SDB (C. albicans) or TSB (P. aeruginosa), washed twice in Tris buffer, and resuspended in the same buffer. Cell suspensions (approximately 10^7 cells/mL) were preincubated with defensins (2 x NPIC), human lactoferrin (20 μM), or piericidin A (32 μM) for 15 min at 37 °C. Oxygen consumption was recorded at 5-min intervals for a period of 30 min. Three independent experiments were performed, and the data are means ± SD.

P. aeruginosa cells = experiment: Oxygen consumption measurement (polarographic), P. aeruginosa; format: cell-based, Pseudomonas aeruginosa; details: after 30 min; defensins 2 x NPIC, human lactoferrin 20 μM, piericidin A 32 µM; preincubated 15 min at 37 °C; untreated cells 83% ± 2%; means ± SD, three experiments
Experimental: as §3

C. albicans cells [5] = experiment: Total cellular ATP (BacTiter-Glo); format: cell-based, Candida albicans; details: defensins at NPIC, human lactoferrin 5 μM, BM2 peptide 0.25 μM; 10^6 cells/mL; BacTiter-Glo luminescence
Experimental: Total ATP was measured using the BacTiter-Glo^TM Microbial Cell Viability Assay (Promega Co., Madison, WI, USA) according to the manufacturer’s instructions. […] Aliquots (100 µL) were incubated (90 min at 37 °C) with human defensins (NPICs). Human lactoferrin (5 μM) or BM2 peptide (0.25 μM) was used as positive controls. One hundred microliters of the incubation mixture was transferred to an opaque 96-well plate, mixed with an equal volume of BacTiter-Glo^TM reagent, and incubated for 15 min in the dark. The reagent uses a thermostable luciferase to generate luminescence in an ATP-dependent manner. The emitted luminescence was detected using a Varioskan Flash multimode reader (Thermo Scientific, Waltham, MA, USA) with a 10 s shaking and 1 s integration time. A calibration curve was generated for each experiment with ATP standards ranging from 1 to 1000 nM. All assays were performed at least three times in duplicate.

C. albicans cells [6] = experiment: Membrane potential monitoring with DiBAC4(3), flow cytometry; format: cell-based, Candida albicans; details: peptides at NPIC, hLf 5 μM, BM2 0.25 μM; DiBAC4(3) 1 µg/mL
Experimental: The membrane potential-sensitive probe DiBAC4(3) was used to monitor the transmembrane electrical potential of C. albicans cells as previously described with slight modifications. Briefly, cells were harvested from mid-log phase cultures via centrifugation and suspended in Tris buffer. The cell suspension was adjusted to 10^6 cells/mL and then incubated with DiBAC4(3) at a final concentration of 1 µg/mL for 30 min. Fluorescence was measured using a CytoFLEX S flow cytometer (Beckman Coulter) with excitation at 561 nm and emission at 690/50 nm. For each treatment, 5000 events were counted per experiment with an exposure time of 1000 ms. Results were analyzed using CytExpert 2.1 Acquisition software. As positive controls, human lactoferrin and BM2 peptide were used. Three independent experiments were performed and data are expressed as means ± SD.

N#CC(C#N)=NNc1cccc(Cl)c1 [CCCP, carbonyl cyanide m-chlorophenylhydrazone, reference compound]
viability of P. aeruginosa with CCCP alone, acidic extracellular pH ([1]; 50 µM CCCP, pH of 5.5 and 6.5): decreased
viability of P. aeruginosa with CCCP alone, alkaline pH ([1]; 50 µM CCCP, pH of 7.4, 7.7, and 8.0): not significantly altered

C[C@@H]1[C@H](O)[C@@H](C)/C=C/C=C/CC/C=C/C=C/C=C/C=C/C(O[C@H]2O[C@H](C)[C@@H](O)[C@H](N)[C@@H]2O)CC2O[C@](O)(CC(O)C(O)CCC(O)CC(O)CC(O)CC(=O)O[C@H]1C)CC(O)C2C(=O)O (stereo partly drawn) [nystatin, reference compound]
effect of high extracellular K+ on candidacidal activity [2]: no effect
effect of Tok1p inhibition (TEA) on candidacidal activity ([2]; peptides at NPIC): not altered
K^+-release from yeast cells (C. albicans cells [3]; nystatin 50 μM, 90 min, 37 °C, relative to total cellular K+-content (100%), ICP-MS): 70–85%

C/C=C(\C)[C@H](O)[C@H](C)/C=C(C)/C=C/C/C(C)=C/Cc1nc(OC)c(OC)c(O)c1C [piericidin A, reference compound]
oxygen consumption percentage of C. albicans (C. albicans cells [4]): 20% ± 3%
O2 consumption of P. aeruginosa (P. aeruginosa cells): 17% ± 3%

D-NH2-RRRFWWFRRR-CONH2 [BM2 peptide, positive control, reference compound]
increase in ATP levels compared to the untreated control (C. albicans cells [5]): ~ 9 fold
transmembrane electrical potential (DiBAC4(3) fluorescence) (C. albicans cells [6]): increase in DiBAC4(3) fluorescence
effect of high extracellular K+ on candidacidal activity [2]: significantly decreased
effect of piericidin A on candidacidal activity ([2]; cells preincubated 15 min at 37 °C with 32 µM piericidin A, then peptides (NPIC) 90 min): significantly (p < 0.001) inhibited
effect of oligomycin A on candidacidal activity ([2]; preincubated 15 min at 37 °C with 16 μg/mL oligomycin A, peptides at NPIC): significantly reduced
effect of Tok1p inhibition (TEA) on candidacidal activity ([2]; peptides at NPIC): reduced
K^+-efflux pattern in C. albicans (C. albicans cells [3]; peptides at NPIC / microbicidal concentrations, 10^7 cells/mL, 90 min at 37 °C, steady state compared with maximum intracellular K+ of untreated cells): partial K^+-efflux

colistin (polymyxin E) [reference compound]
effect of high extracellular K+ on pseudomonacidal activity ([1]; 50 mM KCl, defensins at NPIC, hLf 1 μM, colistin 4 μg/mL): no effect
